Test results: patent US9783499B2, “Quinoline derivatives and their applications” (Shenyang Pharmaceutical University, priority 2012, dated 2017)
Values after ≈ are worked out from the molar mass of the structure shown.

Experiments:
Format in all cases: cell-based
[1] = test system: H460 (human lung cancer cell); test: In vitro anti-tumor cellular activity (MTT), H460; conditions: for H460 IC50: 72 hours; for IC50: Homo sapiens, NCI-H460, 72 hours
Method: (§1) After pouring the cell dissociation buffer to the centrifugetube, nutrient solution was added to stop digestion. The centrifugetube were centrifuged for 10 min under 800 r/min, the liquid supernatant was removed, 5 mL culture solution was added, after mixing by pipetting the cell, took 10 μL cell suspension to the cell counting plat, and adjusted the cell concentration to 10^4/well. Among the 96 wells, A1 is empty, 100 μL of cell suspension were added to the other wells. The 96 well plates were incubated in the incubator for 24 h. […] The 96-well plates were placed in an incubator and cultivated for 72 hours. (3) The culture media containing the compounds in the 96-well plates was discarded, and the cells were washed with phosphate buffered solution (PBS) twice. Each well was added with 100 μL MTT (tetrazole) (0.5 mg/mL), and then placed in an incubator to incubate for 4 hours, after which MTT solution was discarded and 100 μL dimethyl sulfoxide was added thereto.

[2] = test system: HT-29 (colon cancer cell); test: In vitro anti-tumor cellular activity (MTT), HT-29; conditions: 72 hours; for IC50: Homo sapiens
Method: as §1

[3] = test system: MKN-45 (human gastric carcinoma cell); test: In vitro anti-tumor cellular activity (MTT), MKN-45; conditions: 72 hours; for IC50: Homo sapiens
Method: as §1

[4] = test system: SMMC-7721 (hepatoma cell); test: In vitro anti-tumor cellular activity (MTT), SMMC-7721; conditions: 72 hours; for IC50: Homo sapiens
Method: as §1

[5] = test system: MDA-MB-231 (human beast cancer cell); test: In vitro anti-tumor cellular activity (MTT), MDA-MB-231; conditions: 72 hours; for IC50: Homo sapiens
Method: as §1

[6] = test system: U87MG (Human malignant glioblastoma cell); test: In vitro anti-tumor cellular activity (MTT), U87MG; conditions: 72 hours; for IC50: Homo sapiens, U-87 MG
Method: as §1

| IC50 [1] | IC50 [2] | IC50 [3] | IC50 [4] | IC50 [6] | Compound | H460 IC50 [1] | HT-29 IC50 [2] | MKN-45 IC50 [3] | SMMC-7721 IC50 [4] | MDA-MB-231 IC50 [5] | U87MG IC50 [6] | IC50 [5] |
| --- | --- | --- | --- | --- | --- | --- | --- | --- | --- | --- | --- | --- |
|  |  |  |  |  | COc1cc2c(Oc3ccc(NC(=O)NN=Cc4ccc(Cl)cc4Cl)cc3F)ccnc2cc1OCCCN1CCOCC1 [Example 20, (E)-N^1-(3-fluoro-4-(6-methoxy-7-(3-(morpholin-4-yl)propoxy)quinoline-4-yloxy)phenyl)-N^4-(2,4-dichlorobenzaldehyde)semicarbazone] | 1.1 µg/mL | 0.84 µg/mL | 1.5 µg/mL | 6.7 µg/mL | 1.7 µg/mL | 4.2 µg/mL |  |
| 0.16 µg/mL (≈ 0.245 µM) | 0.065 µg/mL (≈ 0.0997 µM) | 0.1 µg/mL (≈ 0.153 µM) | 0.98 µg/mL (≈ 1.5 µM) | 0.89 µg/mL (≈ 1.37 µM) | COc1cc2c(Oc3ccc(N(/N=C/c4c(O)ccc5ccccc45)C(N)=O)cc3F)ccnc2cc1OCCCN1CCC(C)CC1 [Example 21, (E)-N^1-(3-fluoro-4-(6-methoxy-7-(3-(4-methylpiperidin-1-yl)propoxy)quinoline-4-yloxy)phenyl)-N^4-(2-hydroxy-1-naphthaldehyde)semicarbazone] |  |  |  |  |  |  | 0.087 µg/mL (≈ 0.133 µM) |
|  |  |  |  |  | COc1cc2c(Oc3ccc(NC(=O)N/N=C/c4ccc(F)c(F)c4)cc3F)ccnc2cc1OCCCN1CCCC1 [Example 22, (E)-N^1-(3-fluoro-4-(6-methoxy-7-(3-(pyrrolidin-1-yl)propoxy)quinoline-4-lyoxy)phenyl)-N^4-(3,4-difluorobenzaldehyde)semicarbazone] | 0.29 µg/mL | 0.19 µg/mL | 0.37 µg/mL | 1.2 µg/mL | 0.31 µg/mL | 0.66 µg/mL |  |
| 1.3 µg/mL (≈ 2.1 µM) | 0.59 µg/mL (≈ 0.955 µM) | 0.2 µg/mL (≈ 0.324 µM) | 0.53 µg/mL (≈ 0.858 µM) | 1.4 µg/mL (≈ 2.27 µM) | COc1cc2c(Oc3ccc(N(/N=C/c4cc(C)c(O)c(C)c4)C(N)=O)cc3F)ccnc2cc1OCCCN1CCOCC1 [Example 27, (E)-N^1-(3-fluoro-4-(6-methoxy-7-(3-(morpholin-4-yl)propoxy)quinoline-4-yloxy)phenyl)-N^4-(3,5-dimethyl-4-hydroxybenzaldehyde)semicarbazone] |  |  |  |  |  |  | 0.96 µg/mL (≈ 1.55 µM) |
|  |  |  |  |  | COc1cc2c(Oc3ccc(NC(=S)N/N=C/c4ccccc4[N+](=O)[O-])cc3F)ccnc2cc1OCCCN1CCCC1 [Example 32] | 0.19 µg/mL | 0.24 µg/mL | 0.33 µg/mL | 0.77 µg/mL | 0.13 µg/mL | 1.2 µg/mL |  |
|  |  |  |  |  | COc1cc2c(Oc3ccc(NC(=S)N/N=C/c4ccccc4)cc3F)ccnc2cc1OCCCN1CCCC1 [Example 36, (E)-N^1-(3-fluoro-4-(6-methoxy-7-(3-(pyrrolidin-1-yl)propoxy)quinoline-4-yloxy)phenyl)-N^4-(benzaldehyde)thiosemicarbazone] | 0.034 µg/mL | 0.012 µg/mL | 0.11 µg/mL | 0.35 µg/mL | 0.048 µg/mL | 0.29 µg/mL |  |
|  |  |  |  |  | COc1cc2c(Oc3ccc(NC(=S)N/N=C/c4ccccc4)cc3F)ccnc2cc1OCCCN1CCC(C)CC1 [Example 37, (E)-N^1-(3-fluoro-4-(6-methoxy-7-(3-(4-methylpiperidin-1-yl)propoxy)quinoline-4-yloxy)phenyl)-N^4-(benzaldehyde)thiosemicarbazone] | 0.089 µg/mL | 0.13 µg/mL | 0.56 µg/mL | 0.43 µg/mL | 0.13 µg/mL | 0.50 µg/mL |  |
|  |  |  |  |  | COc1cc2c(Oc3ccc(NC(=S)N/N=C/c4ccccc4)cc3F)ccnc2cc1OCCCN1CCOCC1 [Example 38, (E)-N^1-(3-fluoro-4-(6-methoxy-7-(3-(morpholin-4-yl)propoxy)quinoline-4-yloxy)phenyl)-N^4-(benzaldehyde)thiosemicarbazone] | 0.16 µg/mL | 0.28 µg/mL | 0.11 µg/mL | 1.4 µg/mL | 0.18 µg/mL | 0.90 µg/mL |  |
|  |  |  |  |  | COc1cc2c(Oc3ccc(NC(=S)N/N=C/c4ccccc4)cc3F)ccnc2cc1OCCCN1CCN(C)CC1 [Example 39, (E)-N^1-(3-fluoro-4-(6-methoxy-7-(3-(4-methyl-1-piperazinyl)propoxy)quinoline-4-yloxy)phenyl)-N^4-(benzaldehyde)thiosemicarbazone] | 1.1 µg/mL | 0.94 µg/mL | 0.59 µg/mL | 1.7 µg/mL | 0.97 µg/mL | 1.6 µg/mL |  |
| 0.11 µg/mL (≈ 0.181 µM) | 0.19 µg/mL (≈ 0.313 µM) | 0.37 µg/mL (≈ 0.609 µM) | 1 µg/mL (≈ 1.65 µM) | 0.9 µg/mL (≈ 1.48 µM) | COc1cc2c(Oc3ccc(N(/N=C/c4ccc(F)cc4)C(N)=S)cc3F)ccnc2cc1OCCCN1CCOCC1 [Example 45, (E)-N^1-(3-fluoro-4-(6-methoxy-7-(3-(morpholin-4-yl)propoxy)quinoline-4-yloxy)phenyl)-N^4-(4-fluorobenzaldehyde)thiosemicarbazone] |  |  |  |  |  |  | 0.17 µg/mL (≈ 0.28 µM) |
|  |  |  |  |  | COc1cc2c(Oc3ccc(C=NNC(=O)Nc4ccc(Cl)c(C(F)(F)F)c4)cc3F)ccnc2cc1OCCCN1CCCCC1 [Example 46] | 0.33 µg/mL | 0.45 µg/mL | 0.23 µg/mL | 0.69 µg/mL | 0.25 µg/mL | 1.2 µg/mL |  |
|  |  |  |  |  | COc1cc2c(Oc3ccc(C=NNC(=O)Nc4cccc(Br)c4)cc3F)ccnc2cc1OCCCN1CCOCC1 [Example 54, (E)-N^1-(3-bromophenyl)-N^4-(3-fluoro-4-(6-methoxy-7-(3-(morpholin-4-yl)propoxy)quinoline-4-yloxy)benzaldehyde)semicarbazone] | 1.5 µg/mL | 1.3 µg/mL | 2.0 µg/mL | 2.7 µg/mL | 0.96 µg/mL | 1.8 µg/mL |  |
|  |  |  |  |  | COc1cc2c(Oc3ccc(C=NNC(=S)Nc4ccc(Cl)c(C(F)(F)F)c4)cc3F)ccnc2cc1OCCCN1CCC(C)CC1 [Example 64, (E)-N^1-[4-chloro-3-(trifluoromethyl)phenyl]-N^4-(3-fluoro-4-(6-methoxy-7-(3-(4-methylpiperidin-1-yl)propoxy)quinoline-4-yloxy)benzaldehyde)thiosemicarbazone] | 0.56 µg/mL | 0.34 µg/mL | 0.65 µg/mL | 1.0 µg/mL | 0.98 µg/mL | 1.7 µg/mL |  |
|  |  |  |  |  | COc1cc2c(Oc3ccc(/C=N/NC(=S)Nc4cccc(Br)c4)cc3F)ccnc2cc1OCCCN1CCOCC1 [Example 65, (E)-N^1-(3-bromophenyl)-N^4-(3-fluoro-4-(6-methoxy-7-(3-(morpholin-4-yl)propoxy)quinoline-4-yloxy)benzaldehyde)thiosemicarbazone] | 2.4 µg/mL | 1.9 µg/mL | 4.8 µg/mL | 2.8 µg/mL | 2.1 µg/mL | 3.4 µg/mL |  |
|  |  |  |  |  | (E)-N^1-(3,5-dichlorophenyl)-N^4-(3-fluoro-4-(6-methoxy-7-(3-(piperidin-1-yl)propoxy)quinolin-4-yloxy)benzylidene)thiosemicarbazide [Example 61] | 0.054 µg/mL | 0.076 µg/mL | 0.15 µg/mL | 0.22 µg/mL | 0.092 µg/mL | 0.21 µg/mL |  |
|  |  |  |  |  | (E)-N^1-(3-fluoro-4-(6-methoxy-7-(3-(4-methylpiperidin-1-yl)propoxy)quinoline-4-yloxy)phenyl)-N^4-(2-chloro-4-fluorobenzaldehyde)semicarbazone [Example 13] | 0.097 µg/mL | 0.16 µg/mL | 0.27 µg/mL | 0.29 µg/mL | 0.16 µg/mL | 0.33 µg/mL |  |
|  |  |  |  |  | (E)-N^1-(3-fluoro-4-(6-methoxy-7-(3-(piperidin-1-yl)propoxy)quinolin-4-yloxy)phenyl)-N^4-(3,4-difluorobenzylidene)thiosemicarbazide [Example 31] | 0.041 µg/mL | 0.013 µg/mL | 0.11 µg/mL | 0.39 µg/mL | 0.059 µg/mL | 0.22 µg/mL |  |
|  |  |  |  |  | (E)-N^1-(3-fluoro-4-(6-methoxy-7-(3-(piperidin-1-yl)propoxy)quinoline-4-yloxy)phenyl)-N^4-(2,4-dichlorobenzaldehyde)thiosemicarbazone [Example 41] | 0.097 µg/mL | 0.13 µg/mL | 0.10 µg/mL | 0.66 µg/mL | 0.088 µg/mL | 0.54 µg/mL |  |
|  |  |  |  |  | (E)-N^1-(3-fluoro-4-(6-methoxy-7-(3-(piperidin-1-yl)propoxy)quinoline-4-yloxy)phenyl)-N^4-(2-nitrobenzaldehyde)thiosemicarbazone [Example 34] | 0.089 µg/mL | 0.076 µg/mL | 0.12 µg/mL | 0.24 µg/mL | 0.077 µg/mL | 0.19 µg/mL |  |
